Holding throughout (type): biochemical
The target in assay [1] is T1, SIK1 (SEQ ID NO: 10) (Homo sapiens, UniProt P57059).
T1 construct: Reaction Biology Corporation (assay service, HotSpot panel)
As to the kind of experiment: Protein kinase assay, SIK1. Particulars: read-out: SIK1 (SEQ ID NO: 10) kinase inhibition result. The method, then:
(§1) Briefly, specific kinase/substrate pairs along with required cofactors were prepared in reaction buffer; 20 mM Hepes (pH 7.5), 10 mMmgCl2, 1 mM EGTA, 0.02% Brij35, 0.02 mg/ml BSA, 0.1 mM Na3VO4, 2 mM DTT, 1% DMSO. Compounds were delivered into the reaction, followed ˜20 min later by addition of a mixture of ATP (Sigma) and 33P ATP (PerkinElmer) to a final concentration of 10 μM. […] IC50 values and curve fits were obtained using Prism (GraphPad Software). Kinome tree representations were prepared using Kinome Mapper (http://www.reactionbiology.com/apps/kinome/mapper/LaunchKinome.htm).

Assay [2] addresses T2, SIK3 (QSK) (SEQ ID NO: 24) (Homo sapiens, UniProt Q9Y2K2).
T2 construct: Reaction Biology Corporation (assay service, HotSpot panel)
As to the kind of experiment: Protein kinase assay, SIK3. Particulars: read-out: SIK3 (QSK) (SEQ ID NO: 24) kinase inhibition result. The procedure:
as §1

The target in assay [3] is SIK2 (QIK) (SEQ ID NO: 11) (Homo sapiens, UniProt Q9H0K1). As to the kind of experiment: SIK2 kinase assay (radiometric, 10 μM ATP). Conditions: read-out: SIK2 (QIK) (SEQ ID NO: 11) kinase inhibition result. The method, then:
Procedure: Enzyme was incubated with substrate peptide in reaction buffer in the presence and absence of test compounds or Staurosporine. All additions were done on ice, followed by the addition of ATP mix. Wells were uniformly mixed using an Eppendorff plate shaker and incubated at 30° C. for 20 min, and stopped by the addition of 5 μL of 3% phosphoric acid. Volume was increased to 100 μL by adding 0.8% phosphoric acid which was then transferred to PC filter mats (Millipore), pre-equilibrated with 70% ethanol and water. Plates were washed thrice with 100 μL 0.8% phosphoric acid and dried for an hour at 60° C.

pIC50: −log10 of the molar value. Where only a bound is given, the exact number is not on record here.

T2 sequence (Q9Y2K2 whole entry): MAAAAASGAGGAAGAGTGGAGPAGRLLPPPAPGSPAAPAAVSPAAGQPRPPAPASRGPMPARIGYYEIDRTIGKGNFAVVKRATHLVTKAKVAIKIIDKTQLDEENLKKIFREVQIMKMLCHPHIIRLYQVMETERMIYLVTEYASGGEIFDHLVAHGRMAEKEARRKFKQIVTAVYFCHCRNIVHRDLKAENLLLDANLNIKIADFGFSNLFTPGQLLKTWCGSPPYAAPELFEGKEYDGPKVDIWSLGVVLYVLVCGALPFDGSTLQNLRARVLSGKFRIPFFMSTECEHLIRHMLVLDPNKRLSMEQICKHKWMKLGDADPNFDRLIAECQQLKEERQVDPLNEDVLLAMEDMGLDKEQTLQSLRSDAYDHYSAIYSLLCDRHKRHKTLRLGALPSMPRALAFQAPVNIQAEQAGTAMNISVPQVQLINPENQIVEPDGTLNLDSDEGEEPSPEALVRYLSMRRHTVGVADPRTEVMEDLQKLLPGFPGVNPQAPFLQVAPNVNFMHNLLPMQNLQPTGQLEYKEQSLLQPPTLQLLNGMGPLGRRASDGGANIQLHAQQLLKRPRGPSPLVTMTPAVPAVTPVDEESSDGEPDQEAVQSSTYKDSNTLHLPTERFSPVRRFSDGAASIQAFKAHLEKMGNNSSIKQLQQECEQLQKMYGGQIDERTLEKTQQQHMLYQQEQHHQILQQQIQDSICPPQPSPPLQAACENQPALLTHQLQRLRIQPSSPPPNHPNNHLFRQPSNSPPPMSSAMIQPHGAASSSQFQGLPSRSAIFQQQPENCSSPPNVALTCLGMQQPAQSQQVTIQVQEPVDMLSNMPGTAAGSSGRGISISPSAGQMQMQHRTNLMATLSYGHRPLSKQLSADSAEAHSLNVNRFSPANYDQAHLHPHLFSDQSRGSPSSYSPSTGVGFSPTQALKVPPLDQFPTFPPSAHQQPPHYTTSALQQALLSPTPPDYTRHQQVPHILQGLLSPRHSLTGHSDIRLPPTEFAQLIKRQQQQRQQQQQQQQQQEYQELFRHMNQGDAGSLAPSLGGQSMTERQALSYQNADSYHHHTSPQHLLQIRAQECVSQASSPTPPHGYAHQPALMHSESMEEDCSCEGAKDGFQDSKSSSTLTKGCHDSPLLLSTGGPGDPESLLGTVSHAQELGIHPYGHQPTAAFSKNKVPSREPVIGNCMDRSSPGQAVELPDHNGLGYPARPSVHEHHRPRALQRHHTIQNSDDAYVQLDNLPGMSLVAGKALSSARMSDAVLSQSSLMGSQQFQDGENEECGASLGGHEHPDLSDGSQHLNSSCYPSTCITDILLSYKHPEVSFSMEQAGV
Chain of SIK2 (QIK) (SEQ ID NO: 11) (Q9H0K1 whole entry): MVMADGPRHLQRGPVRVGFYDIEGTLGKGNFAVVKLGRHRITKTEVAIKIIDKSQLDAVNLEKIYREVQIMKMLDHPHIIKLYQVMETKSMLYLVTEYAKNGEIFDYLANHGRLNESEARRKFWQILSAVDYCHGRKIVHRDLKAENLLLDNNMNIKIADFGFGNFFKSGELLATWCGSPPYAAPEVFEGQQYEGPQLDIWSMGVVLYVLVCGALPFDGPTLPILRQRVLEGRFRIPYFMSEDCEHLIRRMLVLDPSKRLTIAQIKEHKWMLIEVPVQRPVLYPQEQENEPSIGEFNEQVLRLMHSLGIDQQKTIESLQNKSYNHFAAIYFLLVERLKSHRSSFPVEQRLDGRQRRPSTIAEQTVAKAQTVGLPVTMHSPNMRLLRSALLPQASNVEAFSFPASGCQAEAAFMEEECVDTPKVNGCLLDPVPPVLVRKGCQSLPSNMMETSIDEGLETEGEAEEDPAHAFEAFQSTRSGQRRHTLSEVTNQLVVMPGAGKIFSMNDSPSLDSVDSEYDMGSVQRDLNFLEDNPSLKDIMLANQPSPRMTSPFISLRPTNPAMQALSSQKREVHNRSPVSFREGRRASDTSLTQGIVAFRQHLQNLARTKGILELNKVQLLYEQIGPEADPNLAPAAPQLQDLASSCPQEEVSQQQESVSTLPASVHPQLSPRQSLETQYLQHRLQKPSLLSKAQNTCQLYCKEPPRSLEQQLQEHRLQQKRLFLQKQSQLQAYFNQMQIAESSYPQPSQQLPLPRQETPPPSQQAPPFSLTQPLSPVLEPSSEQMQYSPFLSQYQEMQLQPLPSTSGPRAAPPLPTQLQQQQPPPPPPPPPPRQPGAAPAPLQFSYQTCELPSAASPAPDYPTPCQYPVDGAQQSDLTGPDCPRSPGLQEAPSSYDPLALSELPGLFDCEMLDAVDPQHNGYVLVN
T1 sequence (P57059 whole entry): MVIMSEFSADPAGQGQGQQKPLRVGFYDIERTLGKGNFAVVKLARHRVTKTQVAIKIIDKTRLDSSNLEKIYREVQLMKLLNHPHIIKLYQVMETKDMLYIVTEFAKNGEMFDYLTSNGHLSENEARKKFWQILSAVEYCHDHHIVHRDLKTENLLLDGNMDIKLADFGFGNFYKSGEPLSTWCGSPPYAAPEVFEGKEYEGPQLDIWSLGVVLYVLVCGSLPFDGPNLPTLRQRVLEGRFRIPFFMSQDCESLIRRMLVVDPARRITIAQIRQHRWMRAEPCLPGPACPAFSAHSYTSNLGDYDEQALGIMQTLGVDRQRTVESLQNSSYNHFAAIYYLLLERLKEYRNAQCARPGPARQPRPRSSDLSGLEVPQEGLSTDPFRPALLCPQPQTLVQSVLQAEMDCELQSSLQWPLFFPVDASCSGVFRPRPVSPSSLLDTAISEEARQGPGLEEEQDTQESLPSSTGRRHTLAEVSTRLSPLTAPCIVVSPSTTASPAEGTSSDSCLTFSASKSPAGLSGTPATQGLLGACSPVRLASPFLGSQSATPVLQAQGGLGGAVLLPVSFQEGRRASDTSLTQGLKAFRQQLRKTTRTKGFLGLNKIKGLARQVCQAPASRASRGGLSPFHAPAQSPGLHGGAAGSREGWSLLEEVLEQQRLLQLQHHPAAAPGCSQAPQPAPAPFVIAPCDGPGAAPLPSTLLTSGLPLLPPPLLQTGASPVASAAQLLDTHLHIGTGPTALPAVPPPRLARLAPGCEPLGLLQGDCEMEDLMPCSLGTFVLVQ

On to `COc1c(F)cc(F)cc1-c1c[nH]c2ncc(-c3cccc(S(=O)(=O)N(C)C(C)(C)C)c3)cc12` [Example 181, N-(tert-butyl)-3-(3-(3,5-difluoro-2-methoxyphenyl)-1H-pyrrolo[2,3-b]pyridin-5-yl)-N-methylbenzenesulfonamide], for which the pIC50 in assay [1] is less than 6.00; in assay [2] it was less than 7.00; in assay [3], more than 7.00.

For `COc1c(F)cccc1-c1c[nH]c2ncc(-c3cccc(S(=O)(=O)N4CCCC4)c3)cc12` [Example 182, 3-(3-fluoro-2-methoxyphenyl)-5-(3-(pyrrolidin-1-ylsulfonyl)phenyl)-1H-pyrrolo[2,3-b]pyridine], the pIC50 is less than 6.00 in assay [1], less than 7.00 in assay [2] and more than 7.00 in assay [3].

Consider `COc1c(F)cc(F)cc1-c1c[nH]c2ncc(-c3cccc(S(=O)(=O)N4CCCC4)c3)cc12` [Example 183, 3-(3,5-difluoro-2-methoxyphenyl)-5-(3-(pyrrolidin-1-ylsulfonyl)phenyl)-1H-pyrrolo[2,3-b]pyridine], for which the figures for the pIC50 in assay [1], in assay [2] and in assay [3] were less than 6.00, less than 7.00 and more than 7.00, respectively.

Consider `COc1c(F)cccc1-c1c[nH]c2ncc(-c3cccc(S(=O)(=O)N(C)C)c3)cc12` [Example 184, 3-(3-(3-fluoro-2-methoxyphenyl)-1H-pyrrolo[2,3-b]pyridin-5-yl)-N,N-dimethylbenzenesulfonamide], for which the pIC50 in assay [1] is less than 6.00; in assay [2], less than 7.00; in assay [3], more than 7.00.

Consider `COc1c(F)cc(F)cc1-c1c[nH]c2ncc(-c3cccc(S(=O)(=O)N(C)C)c3)cc12` [Example 185, 3-(3-(3,5-difluoro-2-methoxyphenyl)-1H-pyrrolo[2,3-b]pyridin-5-yl)-N,N-dimethylbenzenesulfonamide], for which the values for the pIC50 in assay [1], in assay [2] and in assay [3] were less than 6.00, less than 7.00 and more than 7.00, respectively.

For `Oc1ccccc1-c1c[nH]c2ncc(-c3ccc(CN4CCOCC4)s3)cc12` [Example 192, 2-(5-(5-(morpholinomethyl)thiophen-2-yl)-1H-pyrrolo[2,3-b]pyridin-3-yl)phenol], the pIC50 in assay [1] is less than 7.00; in assay [2], less than 7.00; in assay [3] it was more than 7.00.

For the compound `Oc1c(F)cccc1-c1c[nH]c2ncc(-c3ccc(CN4CCOCC4)s3)cc12` [Example 193, 2-fluoro-6-(5-(5-(morpholinomethyl)thiophen-2-yl)-1H-pyrrolo[2,3-b]pyridin-3-yl)phenol], the pIC50 was less than 7.00 in assay [1], less than 7.00 in assay [2] and more than 7.00 in assay [3].

For `CN(C(C)(C)C)S(=O)(=O)c1cccc(-c2cnc3[nH]cc(-c4cccc5c4OC(F)(F)O5)c3c2)c1` [Example 196, N-(tertbutyl)-3-(3-(2,2-difluorobenzo[d][1,3]dioxol-4-yl)-1H-pyrrolo[2,3-b]pyridin-5-yl)-N-methylbenzene-sulfonamide], the pIC50 in assay [1] is less than 7.00; in assay [2] it was more than 7.00; in assay [3] it was more than 7.00.

Turning to `FC1(F)Oc2cccc(-c3c[nH]c4ncc(-c5ccc(CN6CCCC6)s5)cc34)c2O1` [Example 197, 3-(2,2-difluorobenzo[d][1,3]dioxol-4-yl)-5-(5-(pyrrolidin-1-ylmethyl)thiophen-2-yl)-1H-pyrrolo[2,3-b]pyridine], the pIC50 in assay [1] is less than 7.00; in assay [2], more than 7.00; in assay [3] it was more than 7.00.

Turning to `FC1(F)Oc2cccc(-c3c[nH]c4ncc(-c5ccc(CN6CCCCC6)s5)cc34)c2O1` [Example 198, 3-(2,2-difluorobenzo[d][1,3]dioxol-4-yl)-5-(5-(piperidin-1-ylmethyl)thiophen-2-yl)-1H-pyrrolo[2,3-b]pyridine], the pIC50 in assay [1] was less than 7.00; in assay [2], more than 7.00; in assay [3] it was more than 7.00.

Consider `FC1(F)Oc2cccc(-c3c[nH]c4ncc(-c5csc(N6CCOCC6)n5)cc34)c2O1` [Example 199, 4-(4-(3-(2,2-difluorobenzo[d][1,3]dioxol-4-yl)-1H-pyrrolo[2,3-b]pyridin-5-yl)thiazol-2-yl)morpholine], for which the results for the pIC50 in assay [1], in assay [2] and in assay [3] were less than 7.00, less than 7.00 and more than 7.00, respectively.

For `FC1(F)Oc2ccc(-c3c[nH]c4ncc(-c5ccc(CN6CCOCC6)s5)cc34)cc2O1` [Example 200], the pIC50 in assay [1] was less than 7.00; in assay [2] it was more than 7.00; in assay [3], more than 7.00.

Take `FC1(F)Oc2ccc(-c3c[nH]c4ncc(-c5cnc(N6CCOCC6)s5)cc34)cc2O1` [Example 201, 4-(5-(3-(2,2-difluorobenzo[d][1,3]dioxol-5-yl)-1H-pyrrolo[2,3-b]pyridin-5-yl)thiazol-2-yl)morpholine]: the pIC50 in assay [1], in assay [2] and in assay [3] was less than 6.00 each time.

For the compound `CN(C(C)(C)C)S(=O)(=O)c1cccc(-c2cnc3[nH]cc(-c4ccc5c(c4)OC(F)(F)O5)c3c2)c1` [Example 202, N-(tert-butyl)-3-(3-(2,2-difluorobenzo[d][1,3]dioxol-5-yl) 1H-pyrrolo[2,3-b]pyridin-5-yl)-N-methylbenzenesulfonamide], the pIC50 is less than 7.00 in assay [1], more than 7.00 in assay [2] and more than 7.00 in assay [3].

As for `FC1(F)Oc2ccc(-c3c[nH]c4ncc(-c5ccc(CN6CCCC6)s5)cc34)cc2O1` [Example 203, 3-(2,2-difluorobenzo[d][1,3]dioxol-5-yl)-5-(5-(pyrrolidin-1-ylmethyl)thiophen-2-yl)-1H-pyrrolo[2,3-b]pyridine], the pIC50 in assay [1] was less than 6.00; in assay [2], less than 6.00; in assay [3] it was more than 7.00.

With `FC1(F)Oc2ccc(-c3c[nH]c4ncc(-c5ccc(CN6CCCCC6)s5)cc34)cc2O1` [Example 204, 3-(2,2-difluorobenzo[d][1,3]dioxol-5-yl)-5-(5-(piperidin-1-ylmethyl)thiophen-2-yl)-1H-pyrrolo[2,3-b]pyridine], the pIC50 is less than 7.00 in assay [1], more than 7.00 in assay [2] and more than 7.00 in assay [3].

Regarding `FC1(F)Oc2ccc(-c3c[nH]c4ncc(-c5csc(N6CCOCC6)n5)cc34)cc2O1` [Example 205, 4-(4-(3-(2,2-difluorobenzo[d][1,3]dioxol-5-yl)-1H-pyrrolo[2,3-b]pyridin-5-yl)thiazol-2-yl)morpholine], the pIC50 in assay [1] was less than 7.00; in assay [2] it was more than 7.00; in assay [3] it was more than 7.00.

As to `FC1(F)Oc2ccc(-c3c[nH]c4ncc(-c5cnn(C6CCNCC6)c5)cc34)cc2O1` [Example 206, 3-(2,2-difluorobenzo[d][1,3]dioxol-5-yl)-5-(1-(piperidin-4-yl)-1H-pyrazol-4-yl)-1H-pyrrolo[2,3-b]pyridine], the values for the pIC50 in assay [1], in assay [2] and in assay [3] were less than 7.00, more than 7.00 and more than 7.00, respectively.

On to `COc1c(F)cccc1-c1c[nH]c2ncc(-c3csc(N4CCOCC4)n3)cc12` [Example 207, 4-(4-(3-(3-fluoro-2-methoxyphenyl)-1H-pyrrolo[2,3-b]pyridin-5-yl)thiazol-2-yl)morpholine], for which the pIC50 in assay [1] is less than 7.00; in assay [2], more than 7.00; in assay [3], more than 7.00.

For `COc1c(F)cc(F)cc1-c1c[nH]c2ncc(-c3csc(N4CCOCC4)n3)cc12` [Example 208, 4-(4-(3-(3,5-difluoro-2-methoxyphenyl)-1H-pyrrolo[2,3-b]pyridin-5-yl)thiazol-2-yl)morpholine], the values for the pIC50 in assay [1], in assay [2] and in assay [3] were less than 7.00, more than 7.00 and more than 7.00, respectively.

`FC1(F)Oc2cccc(-c3c[nH]c4ncc(-c5cnn(C6CCNCC6)c5)cc34)c2O1` [Example 209, 3-(2,2-difluorobenzo[d][1,3]dioxol-4-yl)-5-(1-(piperidin-4-yl)-1H-pyrazol-4-yl)-1H-pyrrolo[2,3-b]pyridine]: the pIC50 in assay [1], in assay [2] and in assay [3] was more than 7.00 each time.

With `O=C(c1c(F)cccc1F)c1c[nH]c2ncc(-c3cnn(C4CCNCC4)c3)cc12` [Example 210, (2,6-difluorophenyl)(5-(1-(piperidin-4-yl)-1H-pyrazol-4-yl)-1H-pyrrolo[2,3-b]pyridin-3-yl)methanone], the pIC50 in assay [1] was less than 7.00; in assay [2], more than 7.00; in assay [3], more than 7.00.

For `COc1c(F)cc(F)cc1-c1c[nH]c2ncc(-c3cnn(S(=O)(=O)N4CCN(C)CC4)c3)cc12` [Example 211, 3-(3,5-difluoro-2-methoxyphenyl)-5-(1-((4-methylpiperazin-1-yl)sulfonyl)-1H-pyrazol-4-yl)-1H-pyrrolo[2,3-b]pyridine], the pIC50 was less than 7.00 in assay [1], more than 7.00 in assay [2] and more than 7.00 in assay [3].

As for `COc1c(F)cc(F)cc1-c1c[nH]c2ncc(-c3cnn(C4CCN(C)CC4)c3)cc12` [Example 212, 3-(3,5-difluoro-2-methoxyphenyl)-5-(1-(1-methylpiperidin-4-yl)-1H-pyrazol-4-yl)-1H-pyrrolo[2,3-b]pyridine], the pIC50 in assay [1] is less than 7.00; in assay [2] it was more than 7.00; in assay [3], more than 7.00.

(Values after patent US9890153B2, “Substituted 1H-pyrrolo [2, 3-b] pyridine and 1H-pyrazolo [3, 4-b] pyridine derivatives as salt inducible kinase 2 (SIK2) inhibitors” (Arrien Pharmaceuticals LLC, priority 2012, dated 2018).)
